In paper PMC8780964, “Evaluation of the Pharmacokinetics of the Pancreastatin Inhibitor PSTi8 Peptide in Rats: Integration of In Vitro and In Vivo Findings” (Molecules, 2022):
Entries after “also recorded” stand apart in the source; their conditions may differ. Like-named read-outs stand apart in the source and are kept apart here. Ends that are not written are not given here.

Legend:
[1] = Equilibrium solubility in SGF and SIF; format: physicochemical
Procedure: The solubility of PSTi8 peptide was conducted using the equilibrium solubility method in SGF (pH 1.2) and SIF (pH 7.4). A total of 50 mg of PSTi8 was added to silanized glass vials containing 1 mL of buffer, and incubated for 1 h at 37 °C in a shaking water bath to attain equilibrium. After incubation, the samples were centrifuged for 10 min at 12,000 g, and supernatant was processed through SPE procedure and used for LC-MS/MS analysis.

[2] = tested on: C57Bl/6 mice; details: mouse, in vivo; cited from earlier work
[3] = in vivo; details: male, SD, rat, ip
Procedure: Male SD rats were utilized in this study and distributed into two groups (each group contained 6 animals). To each group, PSTi8 was administered i.p. at a dose of 10 and 20 mg/kg in rats.
(§1) After dosing in rats, blood (250 µL) samples were collected in EDTA containing microcentrifuge tubes at 0.08, 0.16, 0.33, 0.50, 0.75, 1, 2, 3, 4, 5 and 6 h time points. Plasma was separated from the blood after centrifugation and kept in a −80 °C freezer for LC-MS/MS analysis.
The PK parameters of PSTi8 were estimated with a one-compartmental PK model in Phoenix WinNonlin. […] The PK parameters include the elimination constant (K10), absorption constant (K01), Tmax, elimination half-life (K10-HL), absorption half-life (K01-HL), Cmax, AUC (stands for model derived AUC0-∞), CL/F, mean residence time (MRT) and Vd/F. The bioavailability of PSTi8 was determined using the ratio between the AUC from i.p. or s.c. and i.v. routes, after normalizing the dose.

[4] = Plasma stability study; format: in vitro ADME
Procedure: Fresh rat plasma (1 mL) was used and pre-incubated in a shaking water bath at 37 °C for 10 min. PSTi8 was added to rat plasma at a final concentration of 1 or 5 µM and then incubated for […] at 37 °C in a shaking water bath. A total of 100 µL samples were aliquoted at predetermined time points (0, 5, 15, 30, 60, 90, 120 and 240 min), followed by SPE processing and analyzed using the validated LC-MS/MS method. The plasma stability was determined as the % drug remaining at different time points relative to the drug at 0 min [19].

[5] = in vivo; details: male, SD, rat, 5 mg/kg
Procedure: Rats were distributed into three groups and each group contained 6 animals.
as §1
The i.p. and s.c. PK were best described by a one-compartment first-order PK model without lag time. The i.v. PK was well explained by a one-compartment model with a bolus input and first-order elimination rate. The PK parameters include the elimination constant (K10), absorption constant (K01), Tmax, elimination half-life (K10-HL), absorption half-life (K01-HL), Cmax, AUC (stands for model derived AUC0-∞), CL/F, mean residence time (MRT) and Vd/F. The bioavailability of PSTi8 was determined using the ratio between the AUC from i.p. or s.c. and i.v. routes, after normalizing the dose.

[6] = Gender difference PK study, i.v. and i.p., female SD rats
Procedure: (§2) Female SD rats were utilized and distributed into two groups (each group contained 6 animals). To each group, a 5 mg/kg dose of PSTi8 was administered i.v. and i.p. for PK determination.
as §1
(§3) The PK parameters of PSTi8 were estimated with a one-compartmental PK model in Phoenix WinNonlin. The i.p. and s.c. PK were best described by a one-compartment first-order PK model without lag time. The i.v. PK was well explained by a one-compartment model with a bolus input and first-order elimination rate. The PK parameters include the elimination constant (K10), absorption constant (K01), Tmax, elimination half-life (K10-HL), absorption half-life (K01-HL), Cmax, AUC (stands for model derived AUC0-∞), CL/F, mean residence time (MRT) and Vd/F. The bioavailability of PSTi8 was determined using the ratio between the AUC from i.p. or s.c. and i.v. routes, after normalizing the dose.

[7] = Plasma protein binding, modified charcoal adsorption method; format: in vitro ADME; details: rat plasma
Procedure: The protein binding study of the PSTi8 peptide was conducted in rat plasma using the modified charcoal adsorption method. The suspension of dextran-coated charcoal (0.66%) was prepared in the DPBS buffer (pH 7.4) and stirred overnight (18 h), before the study. PSTi8 (2 µM and 5 µM) was prepared in 2.5 mL rat plasma and pre-incubated at 37 ± 0.5 °C for 15 min in a shaking water bath. The exact volume of the charcoal suspension, the same as the plasma, was centrifuged at 3000 g for 15 min to separate DPBS. The supernatant was decanted and the pre-incubated plasma was added to the charcoal pellet-containing tubes. Plasma-containing charcoal tubes were incubated under continuous stirring up to 4 h. A total of 200 µL samples were collected at the time points of 0, 5, 10, 20, 30, 45, 60, 90, 120 and 180 min, and then centrifuged at 11,000 g for 2.5 min. A total of 100 µL supernatant of the centrifuged sample was separated, extracted using SPE and analyzed with LC-MS/MS. The % peptide remaining in the supernatant plasma sample versus time points data was evaluated using the i.v. bolus two-compartment analysis model on Phoenix 6.3 WinNonlin (Pharsight Corporation, Saint Louis, MO, USA). The model is defined by the bi-exponential Equation (1):(1) B(t)=A1exp(−αt)+A2exp(−βt) where B(t) % is the bound peptide remaining at time t and where A1, A2, α and β are constants.

[8] = in vivo; details: female, SD, rat, ip, 5 mg/kg
Procedure: as §2, §1, §3

[9] = parameters: method as in PMID 31891874; details: i.p., mice; cited from earlier work
[10] = Stability in rat plasma in different storage conditions (bioanalytical validation); format: in vitro ADME
Procedure: A QTRAP-4000 AB Sciex (SCIEX, Concord, ON, Canada) mass spectrometer using an electrospray ionization source tandem with the Shimadzu UFLC system was utilized for the quantitative analysis. Quantification was performed for PSTi8 and IS with positive ionization mode, using prominent selected reaction monitoring transitions as 607.80/771.20 and 342.20/229.10 m/z, respectively. The chromatographic separation of PSTi8 and IS was accomplished on a Phenomenex Aqua 5µ 125A (250 × 4.6 mm) column using an isocratic mode of mobile phase (methanol:0.1 % formic acid, 50:50 % v/v) with 0.4 mL/min flow rate. The analysis run time was 10 min and the injection volume was 10 μL for each sample. Analyst 1.6 software was used to regulate the LC-MS/MS instrument and for data quantification. The plasma sample extraction involved the SPE procedure using MAX cartridges, as previously described. The LC-MS/MS bioanalytical assay of PSTi8 peptide was validated in rat plasma as per the USFDA bioanalytical method validation guidance. The bioanalytical method development and validation of PSTi8 in mice plasma was recently reported. The bioanalytical validation and stability studies were conducted in rat plasma, as described earlier.

[11] = female, SD, rat, plasma, ip, 5 mg/kg
[12] = female, SD, rat, plasma, iv, 5 mg/kg

For PEGKGEQEHSQQKEEEEEMAV-NH2 [PSTi8], the solubility thermodynamic at 1 h ([1]; simulated gastric fluid (SGF) pH 1.2, 37 °C) is given as 9.3 mg/mL, the solubility thermodynamic at 1 h ([1]; simulated intestinal fluid (SIF) pH 7.4, 37 °C) is given as 25.8 mg/mL and the toxicity finding [2] is given as “safe and non-toxic”. The CL/F ([3]; 10 mg/kg) was 5.17 mL/min/kg, the Vd/F ([3]; 10 mg/kg) was 0.26 ± 0.09 L/kg and the CL/F ([3]; 20 mg/kg) was 3.17 mL/min/kg. For the same substance, the Vd/F ([3]; 20 mg/kg) was 0.15 ± 0.03 L/kg, the “stability in rat plasma (in words)” value [4] was “high stability; also recorded: stable” and the remaining at 4 h, 1 µM ([4]; 1 µM, at 4 h, rat plasma, 37 °C, read-out: plasma stability (% drug remaining)) was 88.8 ± 3.39%. The remaining at 4 h, 5 µM ([4]; 5 µM, at 4 h, rat plasma, 37 °C, read-out: plasma stability (% drug remaining)) was 90.6 ± 6.65%, the CL/F ([5]; ip) was 10.3 mL/min/kg and the Vd/F ([5]; ip) was 0.39 ± 0.06 L/kg. For the same substance, the CL/F ([5]; sc) was 12.8 mL/min/kg, the Vd/F ([5]; sc) was 0.46 ± 0.09 L/kg and the AUC [6, 11] was 9980 ± 523 ng·h/mL. It also gave an AUC(0-inf) [6, 11] of 8820 ± 589 ng·h/mL, a Cmax [6, 11] of 7000 ± 216 ng/mL and a Tmax [6, 11] of 28.8 min. The bioavailability [6, 11] was 91.9 ± 6.14%, the half-life [6, 11] was 19.2 ± 1.2 min and the AUC(0-inf) [6, 12] was 9590 ± 1750 ng·h/mL. It also gave a Cmax [6, 12] of 42600 ng/mL, an MRT [6, 12] of 13.2 ± 1.2 min and a half-life [6, 12] of 9.6 ± 1.2 min. For the same substance, the “K01 (absorption constant)” value ([6]; i.p. 5 mg/kg, female SD rats) was 2.14 ± 0.12 h⁻¹, the “K10 (elimination constant)” value ([6]; i.p. 5 mg/kg, female SD rats) was 2.19 ± 0.18 h⁻¹ and the “K10-HL (elimination half-life)” value ([6]; i.p. 5 mg/kg, female SD rats) was 0.32 ± 0.02 h. The “K10 (elimination constant)” value ([6]; i.v. 5 mg/kg, female SD rats) was 4.50 ± 0.48 h⁻¹, the “gender difference in PK parameters and bioavailability” value ([6]; male vs female SD rats, 5 mg/kg i.p. and i.v., 5 mg/kg) was “no gender differences; also recorded: no significant difference” and the fraction unbound at 2 µM ([7]; 2 µM) was 0.264. For the same substance, the fraction unbound at 5 µM ([7]; 5 µM) was 0.307, the fraction unbound ([7]; summary in abstract) was under 0.31 and the CL/F [8] was 9.5 mL/min/kg. For the same substance, the Vd/F [8] was 0.26 ± 0.01 L/kg, the bioavailability [9] was 52% and the “Accuracy (%) of stability sample” value ([10]; 0 h (for all), nominal 30 ng/mL) was 102.34%. The “Accuracy (%) of stability sample” value ([10]; 0 h (for all), nominal 400 ng/mL) was 101.56%, the “Accuracy (%) of stability sample” value ([10]; 0 h (for all), nominal 800 ng/mL) was 101.70% and the “Accuracy (%) of stability sample” value ([10]; Autosampler (4 °C, 12 h), nominal 30 ng/mL) was 112.60%. For the same substance, the “Accuracy (%) of stability sample” value ([10]; Autosampler (4 °C, 12 h), nominal 400 ng/mL) was 94.13%, the “Accuracy (%) of stability sample” value ([10]; Autosampler (4 °C, 12 h), nominal 800 ng/mL) was 99.90% and the “Accuracy (%) of stability sample” value ([10]; Bench-top (2 h), nominal 30 ng/mL) was 96.27%. The “Accuracy (%) of stability sample” value ([10]; Bench-top (2 h), nominal 400 ng/mL) was 96.17%, the “Accuracy (%) of stability sample” value ([10]; Bench-top (2 h), nominal 800 ng/mL) was 106.70% and the “Accuracy (%) of stability sample” value ([10]; Bench-top (6 h), nominal 30 ng/mL) was 103.47%. For the same substance, the “Accuracy (%) of stability sample” value ([10]; Bench-top (6 h), nominal 400 ng/mL) was 93.00%, the “Accuracy (%) of stability sample” value ([10]; Bench-top (6 h), nominal 800 ng/mL) was 97.97% and the “Accuracy (%) of stability sample” value ([10]; Long term (-80°C, 30 days), nominal 30 ng/mL) was 110.13%. The “Accuracy (%) of stability sample” value ([10]; Long term (-80°C, 30 days), nominal 400 ng/mL) was 102.87%, the “Accuracy (%) of stability sample” value ([10]; Long term (-80°C, 30 days), nominal 800 ng/mL) was 108.03% and the “Accuracy (%) of stability sample” value ([10]; Three freeze-thaw cycles, nominal 30 ng/mL) was 101.30%. The “Accuracy (%) of stability sample” value ([10]; Three freeze-thaw cycles, nominal 400 ng/mL) was 106.30%, the “Accuracy (%) of stability sample” value ([10]; Three freeze-thaw cycles, nominal 800 ng/mL) was 108.77% and the “stability in rat plasma with diverse storage conditions (in words)” value ([10]; storage conditions of Table S2) was “stable”.
